Measured values reported in patent publication US6515001B2, “IL-8 receptor ligands-drugs for inflammatory and autoimmune diseases” (Chemokine Therapeutic Corporation, priority 2001, dated 2003).

How the values were obtained:
[1] = system: IL-8-induced [Ca2+]i mobilization in THP1 cells; assay: Inhibition of IL-8-induced intracellular [Ca2+]i mobilization in THP1 cells; assay type: cell-based; conditions: Homo sapiens, THP-1; Fura-2,AM loaded THP1 cells, incubated 60 min prior to induction by 12 nM IL-8
Description: A rapid, transient rise in the free cytosolic Ca^2+ concentration ([Ca^2+])i) is one of the events associated with the Chemokine mediated induction of the associated receptors and is assumed to be involved in many of the subsequent cellular reactions. Both Ca^2+ release from intracellular stores and Ca^2+ influx from the extracellular space contribute to the rise in [Ca^2+]i. […] Fura-2,AM loaded THP1 cells were incubated with CTCM192 for 60 min prior to induction of [Ca^2+]i mobilization by 12 nM IL-8. Results illustrate the effect of CTCM192 (1) on IL-8-induced Ca^2+ mobilization.
In accordance with this aspect of the invention, the benzopyrone derivative, Geetokine, such as compound 1 or corresponding salts may be used for the treatment of a wide range of inflammatory diseases such as gout, arthritis osteoarthritis, rheumatoid arthritis, and ARDS.

[2] = molecular target: IL-8 receptors (CXCR-1 and CXCR-2); assay: Inhibition of binding of I125 labeled IL-8 to IL-8 receptors; conditions: I125 labeled IL-8 as competitor; read-out: IC50, inhibition of binding of IL-8 to CXCR-1 and/or CXCR-2
Description: This example discloses the ability of compounds of the invention, such as benzopyrone derivatives, such as CTCM192 (1), to inhibit binding of IL-8 to IL-8 receptors (CXCR-1 and CXCR-2). The binding studies were conducted using I^125 labeled IL-8 as competitor.

Question: How did the IC50 [1] turn out when Cc1csc(-c2coc3cc(OC(=O)C(Cc4ccccc4)NC(=O)OCc4ccccc4)cc(C)c3c2=O)n1 (centres unmarked) [Compound 1, [7-[5-methylbenzopyrone-5′(3′-methyl)-thiazole]-phenylalanine-benyl ester]] was run?
Answer: 0.34 µM

Question: And the IC50 [2]?
Answer: 45 µM
